Legend:
NCI-H522 = assay: cells; type: functional, cell-based, Homo sapiens;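 note: cell viability assay measuring growth inhibition of human NCI-H522 cells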
Description: SANGER: Inhibition of human NCI-H522 cell growth in a cell viability assay.

NCI-H2141 = assay: cells; type: functional, cell-based, Homo sapiens;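 note: growth inhibition of human NCI-H2141 cells, read out with a cell viability assay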
Description: SANGER: Inhibition of human NCI-H2141 cell growth in a cell viability assay.

MKN-45 = assay: cells; type: functional, cell-based, Homo sapiens;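 note: growth inhibition of human MKN-45 cells, measured with a cell viability assay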
Description: SANGER: Inhibition of human MKN45 cell growth in a cell viability assay.

SW626 = assay: cells; type: functional, cell-based, Homo sapiens;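 note: growth inhibition of SW626 cells, measured with a cell viability assay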
Description: SANGER: Inhibition of human SW626 cell growth in a cell viability assay.

NCI-H596 = assay: cells; type: functional, cell-based, Homo sapiens;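 note: growth inhibition of NCI-H596 cells, read out with a cell viability assay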
Description: SANGER: Inhibition of human NCI-H596 cell growth in a cell viability assay.

NCI-H810 = assay: cells; type: functional, cell-based, Homo sapiens;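 note: IC50 reflects inhibition of cancer cell line growth, read out with a cell viability assay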
Description: SANGER: Inhibition of human NCI-H810 cell growth in a cell viability assay.

HT55 = assay: cells; type: functional, cell-based, Homo sapiens;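 note: cell viability readout measuring growth inhibition of human HT55 cells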
Description: SANGER: Inhibition of human HT55 cell growth in a cell viability assay.

SW-620 = assay: cells; type: functional, cell-based, Homo sapiens;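 note: growth inhibition of human SW-620 cells, measured by a cell viability assay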
Description: SANGER: Inhibition of human SW620 cell growth in a cell viability assay.

Daoy = assay: cells; type: functional, cell-based, Homo sapiens
Description: SANGER: Inhibition of human Daoy cell growth in a cell viability assay.

A-375 = assay: cells; type: functional, cell-based, Homo sapiens;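 note: growth inhibition of A375 cells, read out with a cell viability assay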
Description: SANGER: Inhibition of human A375 cell growth in a cell viability assay.

RERF-LC-MS = assay: cells; type: functional, cell-based, Homo sapiens;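 note: growth inhibition of human RERF-LC-MS cells, read out by a cell viability assay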
Description: SANGER: Inhibition of human RERF-LC-MS cell growth in a cell viability assay.

NCI-H292 = assay: cells; type: functional, cell-based, Homo sapiens;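 note: growth inhibition of NCI-H292 cells, read out with a cell viability assay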
Description: SANGER: Inhibition of human NCI-H292 cell growth in a cell viability assay.

CAKI-1 = assay: cells; type: functional, cell-based, Homo sapiens;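 note: growth inhibition of CAKI-1 cells, measured by a cell viability assay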
Description: SANGER: Inhibition of human CAKI-1 cell growth in a cell viability assay.

CHP-212 = assay: cells; type: functional, cell-based, Homo sapiens
Description: SANGER: Inhibition of human CHP-212 cell growth in a cell viability assay.

CAL-54 = assay: cells; type: functional, cell-based, Homo sapiens;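 note: growth inhibition of CAL-54 cells, read out by a viability measurement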
Description: SANGER: Inhibition of human CAL-54 cell growth in a cell viability assay.

LP-1 = assay: cells; type: functional, cell-based, Homo sapiens;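 note: growth inhibition of human LP-1 cells, with the read-out taken from a cell viability assay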
Description: SANGER: Inhibition of human LP-1 cell growth in a cell viability assay.

KOSC-2 = assay: cells; type: functional, cell-based, Homo sapiens;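 note: growth inhibition of KOSC-2 cells, read out by a cell viability assay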
Description: SANGER: Inhibition of human KOSC-2 cell growth in a cell viability assay.

SK-N-AS = assay: cells; type: functional, cell-based, Homo sapiens;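 note: growth inhibition of human SK-N-AS cells, measured with a cell viability assay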
Description: SANGER: Inhibition of human SK-N-AS cell growth in a cell viability assay.

DoTc2-4510 = assay: cells; type: functional, cell-based, Homo sapiens
MEL-HO = assay: cells; type: functional, cell-based, Homo sapiens
Description: SANGER: Inhibition of human MEL-HO cell growth in a cell viability assay.

ESS-1 = assay: cells; type: functional, cell-based, Homo sapiens;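 note: growth inhibition of human ESS-1 cells, read out by a cell viability assay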
Description: SANGER: Inhibition of human ESS-1 cell growth in a cell viability assay.

EB2 = assay: cells; type: functional, cell-based, Homo sapiens;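 note: growth inhibition of EB2 cells, read out with a cell viability assay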
Description: SANGER: Inhibition of human EB2 cell growth in a cell viability assay.

LCLC-97TM1 = assay: cells; type: functional, cell-based, Homo sapiens;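 note: cell viability assay measuring growth inhibition of human LCLC-97TM1 cells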
Description: SANGER: Inhibition of human LCLC-97TM1 cell growth in a cell viability assay.

LC4-1 = assay: cells; type: functional, cell-based, Homo sapiens;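 note: growth inhibition of LC4-1 cells, read out with a cell viability assay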
Description: SANGER: Inhibition of human LC4-1 cell growth in a cell viability assay.

TALL-1 = assay: cells; type: functional, cell-based, Homo sapiens;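 note: growth inhibition of cultured human TALL-1 cells, read out by a cell viability assay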
Description: SANGER: Inhibition of human TALL-1 cell growth in a cell viability assay.

EVSA-T = assay: cells; type: functional, cell-based, Homo sapiens;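 note: growth inhibition of EVSA-T cells, read out with a cell viability assay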
Description: SANGER: Inhibition of human EVSA-T cell growth in a cell viability assay.

IMR-5 = assay: cells; type: functional, cell-based, Homo sapiens;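 note: growth inhibition of human IMR-5 cells, read out with a cell viability assay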
Description: SANGER: Inhibition of human IMR-5 cell growth in a cell viability assay.

SK-MEL3 = assay: cells; type: functional, cell-based, Homo sapiens, SK-MEL-3;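 note: growth inhibition of human SK-MEL-3 cells, read out with a cell viability assay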
Description: SANGER: Inhibition of human SK-MEL-3 cell growth in a cell viability assay.

HCC70 = assay: cells; type: functional, cell-based, Homo sapiens;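 note: cell viability assay measuring how strongly the compound suppresses proliferation of HCC70 cells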
Description: SANGER: Inhibition of human HCC70 cell growth in a cell viability assay.

BL-70 = assay: SANGER: Inhibition of human BL-70 cell growth in a cell viability assay.; type: functional, cell-based
KYSE-450 = assay: cells; type: functional, cell-based, Homo sapiens;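 note: cell growth inhibition measured by a viability assay in human KYSE-450 cells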
Description: SANGER: Inhibition of human KYSE-450 cell growth in a cell viability assay.

BCPAP = assay: cells; type: functional, cell-based, Homo sapiens
Description: SANGER: Inhibition of human BCPAP cell growth in a cell viability assay.

HuP-T3 = assay: cells; type: functional, cell-based, Homo sapiens;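 note: HuP-T3 cell growth inhibition, read out with a cell viability assay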
Description: SANGER: Inhibition of human HuP-T3 cell growth in a cell viability assay.

SK-MEL-28 = assay: cells; type: functional, cell-based, Homo sapiens;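 note: growth inhibition of human SK-MEL-28 cells, read out with a cell viability assay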
Description: SANGER: Inhibition of human SK-MEL-28 cell growth in a cell viability assay.

RPMI 8402 = assay: SANGER: Inhibition of human RPMI-8402 cell growth in a cell viability assay.; type: functional, cell-based; conditions: read-out: IC50
SW1088 = assay: cells; type: functional, cell-based, Homo sapiens;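 note: growth inhibition of human SW1088 cells, read out by a cell viability assay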
Description: SANGER: Inhibition of human SW1088 cell growth in a cell viability assay.

A-427 = assay: cells; type: functional, cell-based, Homo sapiens;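 note: growth inhibition of human A-427 cells, read out by a cell viability assay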
Description: SANGER: Inhibition of human A427 cell growth in a cell viability assay.

A673 = assay: cells; type: functional, cell-based, Homo sapiens;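 note: growth inhibition of human A673 cells, read out through a cell viability assay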
Description: SANGER: Inhibition of human A673 cell growth in a cell viability assay.

YT = assay: cells; type: functional, cell-based, Homo sapiens
Description: SANGER: Inhibition of human YT cell growth in a cell viability assay.

CAL-33 = assay: cells; type: functional, cell-based, Homo sapiens;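 note: growth inhibition of CAL-33 cells, read out with a cell viability assay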
Description: SANGER: Inhibition of human CAL-33 cell growth in a cell viability assay.

OAW-28 = assay: cells; type: functional, cell-based, Homo sapiens;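 note: growth inhibition of OAW-28 cells, read out with a cell viability assay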
Description: SANGER: Inhibition of human OAW-28 cell growth in a cell viability assay.

SNU-C1 = assay: cells; type: functional, cell-based, Homo sapiens;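 note: growth inhibition of SNU-C1 human cells, read out by a cell viability assay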
Description: SANGER: Inhibition of human SNU-C1 cell growth in a cell viability assay.

8505C = assay: cells; type: functional, cell-based, Homo sapiens
Description: SANGER: Inhibition of human 8505C cell growth in a cell viability assay.

KYSE-520 cell line = assay: cells; type: functional, cell-based, Homo sapiens;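 note: growth inhibition of human KYSE-520 cells, read out with a viability assay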
Description: SANGER: Inhibition of human KYSE-520 cell growth in a cell viability assay.

HTC-C3 = assay: cells; type: functional, cell-based, Homo sapiens
Description: SANGER: Inhibition of human HTC-C3 cell growth in a cell viability assay.

IM-9 = assay: SANGER: Inhibition of human IM-9 cell growth in a cell viability assay.; type: functional, cell-based

Question: How did the IC50 (NCI-H522; nci-h522) turn out when BLEOMYCIN was run?
Answer: 0.426 µM

Question: What about the IC50 (NCI-H2141; nci-h2141) of the same compound?
Answer: 36.1 µM

Question: And the IC50 (MKN-45; mkn-45)?
Answer: 0.0248 µM

Question: And the IC50 (SW626; sw626)?
Answer: 1.41 µM

Question: And the IC50 (NCI-H596; nci-h596)?
Answer: 13.6 µM

Question: And the IC50 (NCI-H810; nci-h810)?
Answer: 55.1 µM

Question: What about the IC50 (HT55; ht55) of the same compound?
Answer: 1040 µM

Question: And the IC50 (SW-620; sw-620)?
Answer: 3.56 µM

Question: And the IC50 (Daoy; daoy)?
Answer: 0.083 µM

Question: What about the IC50 (A-375; a-375) of the same compound?
Answer: 0.0711 µM

Question: And the IC50 (RERF-LC-MS; rerf-lc-ms)?
Answer: 48.7 µM

Question: What about the IC50 (NCI-H292; nci-h292) of the same compound?
Answer: 0.803 µM

Question: And the IC50 (CAKI-1; caki-1)?
Answer: 0.62 µM

Question: What about the IC50 (CHP-212; chp-212) of the same compound?
Answer: 0.148 µM

Question: And the IC50 (CAL-54; cal-54)?
Answer: 0.191 µM

Question: And the IC50 (LP-1; lp-1)?
Answer: 307 µM

Question: What about the IC50 (KOSC-2; kosc-2) of the same compound?
Answer: 319 µM

Question: What about the IC50 (SK-N-AS; sk-n-as) of the same compound?
Answer: 1950 µM

Question: And the IC50 (DoTc2-4510; dotc2-4510)?
Answer: 0.378 µM

Question: And the IC50 (MEL-HO; mel-ho)?
Answer: 0.85 µM

Question: What about the IC50 (ESS-1; ess-1) of the same compound?
Answer: 0.187 µM

Question: What about the IC50 (EB2; eb2) of the same compound?
Answer: 0.691 µM

Question: What about the IC50 (LCLC-97TM1; lclc-97tm1) of the same compound?
Answer: 1.5 µM

Question: And the IC50 (LC4-1; lc4-1)?
Answer: 11.2 µM

Question: What about the IC50 (TALL-1; tall-1) of the same compound?
Answer: 244 µM

Question: And the IC50 (EVSA-T; evsa-t)?
Answer: 861 µM

Question: What about the IC50 (IMR-5; imr-5) of the same compound?
Answer: 0.137 µM

Question: And the IC50 (SK-MEL3; sk-mel-3)?
Answer: 22.2 µM

Question: What about the IC50 (HCC70; hcc70) of the same compound?
Answer: 126 µM

Question: What about the IC50 (BL-70; bl-70) of the same compound?
Answer: 1650 µM

Question: And the IC50 (KYSE-450; kyse-450)?
Answer: 1.93 µM

Question: What about the IC50 (BCPAP; bcpap) of the same compound?
Answer: 1.44 µM

Question: And the IC50 (HuP-T3; hup-t3)?
Answer: 4.79 µM

Question: What about the IC50 (SK-MEL-28; sk-mel-28) of the same compound?
Answer: 1860 µM

Question: And the IC50 (RPMI 8402; rpmi-8402)?
Answer: 30.7 µM

Question: And the IC50 (SW1088; sw1088)?
Answer: 818 µM

Question: What about the IC50 (A-427; a-427) of the same compound?
Answer: 0.000118 µM

Question: What about the IC50 (A673; a673) of the same compound?
Answer: 10.5 µM

Question: What about the IC50 (YT; yt) of the same compound?
Answer: 1.32 µM

Question: What about the IC50 (CAL-33; cal-33) of the same compound?
Answer: 2.15 µM

Question: What about the IC50 (OAW-28; oaw-28) of the same compound?
Answer: 9.21 µM

Question: And the IC50 (SNU-C1; snu-c1)?
Answer: 82 µM

Question: What about the IC50 (8505C; 8505c) of the same compound?
Answer: 1.04 µM

Question: What about the IC50 (KYSE-520 cell line; kyse-520) of the same compound?
Answer: 6.79 µM

Question: What about the IC50 (HTC-C3; htc-c3) of the same compound?
Answer: 77.8 µM

Question: And the IC50 (IM-9; im-9)?
Answer: 4.13 µM

Question: Which results are given for `CCC/C=C/C=C/C(=O)O[C@H]1/C(=C/C(=O)OC)C[C@H]2C[C@H]([C@@H](C)O)OC(=O)C[C@H](O)C[C@@H]3C[C@H](OC(C)=O)C(C)(C)[C@](O)(C[C@@H]4C/C(=C/C(=O)OC)C[C@H](/C=C/C(C)(C)[C@]1(O)O2)O4)O3` [BRYOSTATIN 1]?
Answer: IC50 (NCI-H522; Homo sapiens, NCI-H522): > 0.008 µM; IC50 (NCI-H2141; Homo sapiens, NCI-H2141): > 0.008 µM; IC50 (MKN-45; Homo sapiens, MKN-45): > 0.008 µM; IC50 (SW626; Homo sapiens, SW626): > 0.008 µM; IC50 (NCI-H596; Homo sapiens, NCI-H596): > 0.008 µM; IC50 (NCI-H810; Homo sapiens, NCI-H810): > 0.008 µM; IC50 (HT55; Homo sapiens, HT55): > 0.008 µM; IC50 (SW-620; Homo sapiens, SW-620): > 0.008 µM; IC50 (Daoy; Homo sapiens, Daoy): > 0.008 µM; IC50 (A-375; Homo sapiens, A-375): > 0.008 µM; IC50 (RERF-LC-MS; Homo sapiens, RERF-LC-MS): > 0.008 µM; IC50 (NCI-H292; Homo sapiens, NCI-H292): > 0.008 µM; IC50 (CAKI-1; Homo sapiens, CAKI-1): > 0.008 µM; IC50 (CHP-212; Homo sapiens, CHP-212): > 0.008 µM; IC50 (CAL-54; Homo sapiens, CAL-54): > 0.008 µM; IC50 (LP-1; Homo sapiens, LP-1): > 0.008 µM; IC50 (KOSC-2; Homo sapiens, KOSC-2): > 0.008 µM; IC50 (SK-N-AS; Homo sapiens, SK-N-AS): > 0.008 µM; IC50 (DoTc2-4510; Homo sapiens, DoTc2-4510): > 0.008 µM; IC50 (MEL-HO; Homo sapiens, MEL-HO): > 0.008 µM; IC50 (ESS-1; Homo sapiens, ESS-1): > 0.008 µM; IC50 (EB2; Homo sapiens, EB2): > 0.008 µM; IC50 (LCLC-97TM1; Homo sapiens, LCLC-97TM1): > 0.008 µM; IC50 (LC4-1; Homo sapiens, LC4-1): > 0.008 µM; IC50 (TALL-1; Homo sapiens, TALL-1): > 0.008 µM; IC50 (EVSA-T; Homo sapiens, EVSA-T): > 0.008 µM; IC50 (IMR-5; Homo sapiens, IMR-5): > 0.008 µM; IC50 (SK-MEL3; Homo sapiens, SK-MEL3): > 0.008 µM; IC50 (HCC70; Homo sapiens, HCC70): > 0.008 µM; IC50 (BL-70; Homo sapiens, BL-70): > 0.008 µM; IC50 (KYSE-450; Homo sapiens, KYSE-450): > 0.008 µM; IC50 (BCPAP; Homo sapiens, BCPAP): > 0.008 µM; IC50 (HuP-T3; Homo sapiens, HuP-T3): > 0.008 µM; IC50 (SK-MEL-28; Homo sapiens, SK-MEL-28): > 0.008 µM; IC50 (RPMI 8402; Homo sapiens, RPMI 8402): > 0.008 µM; IC50 (SW1088; Homo sapiens, SW1088): > 0.008 µM; IC50 (A-427; Homo sapiens, A-427): > 0.008 µM; IC50 (A673; Homo sapiens, A673): > 0.008 µM; IC50 (YT; Homo sapiens, YT): > 0.008 µM; IC50 (CAL-33; Homo sapiens, CAL-33): > 0.008 µM; IC50 (OAW-28; Homo sapiens, OAW-28): > 0.008 µM; IC50 (SNU-C1; Homo sapiens, SNU-C1): > 0.008 µM; IC50 (8505C; Homo sapiens, 8505C): > 0.008 µM; IC50 (KYSE-520 cell line; Homo sapiens, KYSE-520): > 0.008 µM; IC50 (HTC-C3; Homo sapiens, HTC-C3): > 0.008 µM; IC50 (IM-9; Homo sapiens, IM-9): > 0.008 µM

Reference: ChEMBL document CHEMBL1201861, “Genomics of Drug Sensitity in Cancer screening data, Wellcome Trust Sanger Institute”
